From article PMC4373884, “Crystal Structures of the Kinase Domain of the Sulfate-Activating Complex in Mycobacterium tuberculosis” (PLoS ONE, 2015)

How the values were obtained:
[1] = target: T1, CysC (APS kinase domain of CysN) (Mycobacterium tuberculosis, UniProt P9WNM5)
T1 construct: gene cysNC

[2] = target: T1, CysC (APS kinase domain of CysN); remark: listed apart in the source

T1 sequence (P9WNM5 424-612): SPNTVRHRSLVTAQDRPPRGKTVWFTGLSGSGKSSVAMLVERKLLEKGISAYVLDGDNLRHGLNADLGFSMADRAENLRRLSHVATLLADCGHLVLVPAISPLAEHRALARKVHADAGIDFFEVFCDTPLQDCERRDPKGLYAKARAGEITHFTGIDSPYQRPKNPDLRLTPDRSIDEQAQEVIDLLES

| Structure (SMILES) | X-ray crystal structure [1] | ADP-Glo luminescence kinase assay [2] |
| --- | --- | --- |
| Nc1ncnc2c1ncn2[C@@H]1O[C@H](COP(=O)(O)OP(=O)(O)NP(=O)(O)O)[C@@H](O)[C@H]1O [AMP-PNP] | The bound ligands AMP-PNP and APS are well defined in electron density | – |
| Nc1ncnc2c1ncn2[C@@H]1O[C@H](COP(=O)(O)OP(=O)(O)O)[C@@H](O)[C@H]1O [ADP] | The electron density maps clearly show the presence of one molecule of ADP per subunit | – |
| Nc1ncnc2c1ncn2[C@@H]1O[C@H](COP(=O)(O)OP(=O)(O)OP(=O)(O)O)[C@@H](O)[C@H]1O [ATP] | – | The CysC domain used in this study is catalytically active and shows APS kinase activity |
